The results in this text go back to patent publication US11028127B2, “Peptides capable of reactivating p53 mutants” (Yeda Research and Development Co. Ltd., priority 2013, dated 2021).

Series [1] concerns ES2 ovarian carcinoma cells (Mut-p53, position 241). Description: Annexin-V/PI apoptosis assay by flow cytometry. Type of series: cell-based. As to conditions: 12 ug/ml. As for the experimental part: (§1) FIGS. 17A, 17B, 17C and 17D illustrate representative experiments performed on ES2 ovarian carcinoma cells expressing Mut-p53 mutated at position 241 within the DBD. […] Cells were harvested and an apoptosis assay (FIGS. 17A and 17B) was performed using the Annexin-V staining kit (Roche, REF 11 988 549 001). Non-fixed cells were stained with both anti Annexin FITC conjugated antibody to detect apoptotic cells, and PI (propidium iodide) to stain dead cells, according to the manufacturer's instructions. Stained cells were then analyzed by flow cytometry. A total of 10,000 cells was counted for each sample and divided into four sub populations according to staining intensity; cells negative for both PI and Annexin (−PI, −Annexin) are termed live; cells negative for PI and positive for Annexin (−PI, +Annexin) are going through early stages of apoptosis; cells positive for PI and Annexin (+PI, +Annexin) are dead cells that underwent an apoptotic process; and cells positive for PI and negative for Annexin (+PI, −Annexin) are assumed as dead cells that died by a non-apoptotic process such as necrosis.
FIGS. 17A and 17B illustrate a representative experiments performed on ES2 ovarian carcinoma cells (FIGS. 17A-D) expressing Mut-p53 with a mutation at positions 241 within the DBD. […] Cells were harvested, and 60% of the cells were taken for Annexin-PI apoptosis assay and 40% for extraction of RNA, cDNA synthesis and real time PCR analysis. Apoptosis was assayed using the Annexin-V staining kit (Roche, REF 11 988 549 001). Non-fixed cells were stained with both anti Annexin FITC conjugated antibody to detect apoptotic cells, and PI (propidium-iodide) to stain dead cells permeable to the compound, according to the manufacturer's instructions. Stained cells were then analyzed by flow cytometry. A total of 10,000 cells was counted for each sample and divided into four subpopulations according to staining intensity: cells negative for both PI and Annexin (−PI, −Annexin) are termed live; cells negative for PI and positive for Annexin (−PI, +Annexin) are going through early stages of apoptosis; cells positive for PI and Annexin (+PI, +Annexin) are dead cells that underwent an apoptotic process; and cells positive for PI and negative for Annexin (+PI, −Annexin) are assumed to be dead cells that died a non-apoptotic death such as necrosis. […] Treatment with pCAPs 242 and 250 causes a rapid increase in apoptotic cells followed by cell death and after 5 hours of treatment 12% of cells are Annexin positive and about 7% are dead. After 16 and 24 hours of treatment with pCAP 250 the apoptotic population increases to about 27% and dead cells accumulate to 29% at 16h and 36% after 24h. […] CD95 and Btg-2 expression is elevated up to 6 fold over non-treated cells.
A general note: A flow cytometer gives signals particle by particle.

The test system is the same in series [2]. Kind of series: qRT-PCR of p53 target genes (p21, PUMA, CD95, Btg-2). Particulars: 12 ug/ml, over non-treated cells. It counts as cell-based. As for the experimental part:
as §1
FIGS. 17A and 17B illustrate a representative experiments performed on ES2 ovarian carcinoma cells (FIGS. 17A-D) expressing Mut-p53 with a mutation at positions 241 within the DBD. […] Stained cells were then analyzed by flow cytometry. […]

The subject of series [3] is MDA-MB-231 breast cancer cells (Mut-p53, position 280). Kind of series: Crystal violet viability assay. It counts as cell-based. As to conditions: shCon cells. From the text: (§2) FIGS. 15A and 15B are bar graphs illustrating the effect of the various indicated peptides on the viability of breast cancer cells expressing different Mut-p53 isoforms, as determined by crystal violet assay. FIG. 15A: MDA-MB-231 cells expressing Mut-p53 with a mutation at position 280 of the DBD. FIG. 15B: SKBR3 cells expressing Mut-p53 with mutation at position 175 within the DBD. The bar graphs in FIGS. 15A and 15B show for each tested peptide the optical density reads at 595 nm, reflecting the number of cells in the plate after treatment, normalized to the non-treated (NT) samples.
(§3) Cells were cultured in 96 wells plates with 2500-4000 cells/well in 0.1 ml and incubated overnight at 37° C. in order to adhere to the plate. Serial dilutions of different peptides (0.5 μg/ml) were added in 0.1 ml aliquots and the plates incubated for additional 48 h at 37° C. Then medium was removed and cell lysis was determined by staining the cells with crystal violet (0.5%) in methanol/water (1:4, v/v), 50 μl each well, for 10 min, followed by 3 washes with PBS. Afterwards, 10% acetic acid (50 μl) was added to each well and shaken for 10 min. Then, automatic plate reading was performed at 595 nm.
(§4) Experiments using different cancer cell lines expressing endogenously different p53 mutant isoforms were performed. FIGS. 15A and 15B illustrate two representative experiments performed on MDA-MB-231 (FIG. 15A) and SKBR3 (FIG. 15B) breast cancer cells expressing Mut-p53 with mutations at positions 280 or 175, respectively, within the DNA Binding Domain (DBD). To examine the peptides' specificity for Mut-p53, the control used was such cells with a knockdown of Mut-p53 (shp53).

In series [4] the test system is SKBR3 breast cancer cells (Mut-p53, position 175). Description: Crystal violet viability assay. As to conditions: shCon cells. It counts as cell-based.
Source text: as §2, §3, §4

Another series is described as follows: Solubility in DMSO. It counts as physicochemical. Particulars: at a concentration of 10 mg/ml. The text has this: Addition of a poly arginine tail to peptides dramatically increases the solubility of peptides with a high content of hydrophobic amino acids. […] Lead peptides were further subjected to rigorous examination of effects on cell viability in a Mut-p53 specific manner.

Where no end group is shown, it is not given here.

Turning to myr-RRHSTPHPD [pCAP-250], the apoptotic population entry in series [1] (after 16 and 24 hours of treatment) was “about 27%”. Moreover, in series [1] (after 5 hours of treatment), the Annexin positive cells was determined as 12%. Moreover, the results for the dead cells entry in series [1] (after 5 hours of treatment), in series [1] (after 24h) and in series [1] (at 16h) were “about 7%”, 36% and 29%, respectively. Further, the “p21 and PUMA mRNA expression increase over time” value in series [2] is listed as “up to 10 fold”.
As to HANLHHTRRRRRRRRRRR [pCAP-146], the “Mut-p53 specific effect on cell viability, MDA-MB-231 shCon cells” value in series [3] is “significant decrease”. In series [4], the “Mut-p53 specific effect on cell viability, SKBR3 shCon cells” value is given as “almost no specific effect”.
Take YRRLLIGMMW [pCAP-25]: in “Solubility in DMSO”, the “solubility in DMSO” value is listed as “insoluble”.
